Source: ChEMBL document CHEMBL1157411, “Marine natural product libraries for high-throughput screening and rapid drug discovery” (J Nat Prod, 2008)
Calls of active or inactive are those of the source. The rule behind the calls is not given here.

How the values were obtained:
[1] = tested on: Nucleic Acid; assay: Binding affinity to supercoiled pRYG plasmid DNA assessed as DNA intercalation at 50 uM after 21 hrs by electrophoresis; format: nucleic-acid assay
[2] = Cytotoxicity against BRCA2-deficient Chinese hamster V-C8 mutant cells after 3 days by WST1 cell viability assay; format: functional, cell-based; settings: Cricetulus griseus, WST1, 72 h
[3] = Cytotoxicity against BRCA2-proficient Chinese hamster BAC29 mutant cells after 3 days by WST1 cell viability assay; format: functional, cell-based; settings: Cricetulus griseus, WST1, 72 h
[4] = Selectivity ratio for IC50 of BRCA2-deficient Chinese hamster V-C8 mutant cells to IC50 of BRCA2-proficient Chinese hamster BAC29 mutant cells; format: functional, Cricetulus griseus

Row | Activity [1] | Compound | IC50 [2] [nM] | IC50 [3] [nM] | Ratio IC50 [4]
1 | Active | COc1cccc2c1C(=O)c1c(O)c3c(c(O)c1C2=O)C[C@@](O)(C(=O)CO)C[C@@H]3O[C@H]1C[C@H](N)[C@H](O)[C@H](C)O1 | – | – | –
2 | – | CO[C@@]12[C@H](COC(N)=O)C3=C(C(=O)C(C)=C(N)C3=O)N1C[C@@H]1N[C@@H]12 [MITOMYCIN] | 5 | 400 | 292
